Results on nine compounds are retold here after paper PMC11123841, “Discovery and Synthesis of Hydroxy-L-Proline Blockers of the Neutral Amino Acid Transporters SLC1A4 (ASCT1) and SLC1A5 (ASCT2)” (Molecules, 2024).

Holding throughout (format): cell-based
Assay [1] has as its target T1, SLC1A5 (Mus musculus, UniProt P51912).
T1 construct: expressed in transfected cells; host or cells: Xenopus laevis oocytes (cRNA injection)
T1 sequence (P51912 1-553): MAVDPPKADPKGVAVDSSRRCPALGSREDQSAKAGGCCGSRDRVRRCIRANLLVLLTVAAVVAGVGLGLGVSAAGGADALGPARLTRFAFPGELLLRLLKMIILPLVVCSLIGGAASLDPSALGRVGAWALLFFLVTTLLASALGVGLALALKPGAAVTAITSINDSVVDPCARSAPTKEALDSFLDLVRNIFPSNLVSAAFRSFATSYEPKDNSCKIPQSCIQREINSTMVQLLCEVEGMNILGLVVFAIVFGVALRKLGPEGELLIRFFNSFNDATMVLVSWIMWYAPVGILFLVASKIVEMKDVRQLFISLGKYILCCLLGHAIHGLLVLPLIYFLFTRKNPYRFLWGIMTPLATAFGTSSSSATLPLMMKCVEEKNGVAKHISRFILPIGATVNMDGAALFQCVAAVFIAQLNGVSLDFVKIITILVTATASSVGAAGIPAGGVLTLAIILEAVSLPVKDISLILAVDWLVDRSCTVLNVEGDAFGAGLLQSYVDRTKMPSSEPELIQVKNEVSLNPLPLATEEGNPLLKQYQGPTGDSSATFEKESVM
Put plainly: [3H]L-Gln radiolabeled uptake competition in oocytes. To be noted: 10 µM [3H]L-Gln uptake in SLC1A5; read-out: IC50, block of [3H]L-Gln uptake. How it is done: Uptake was halted by washing 3 times with 4 °C ND96 buffer. Oocytes were then lysed in 0.1% Triton X-100, and radioactivity was counted via liquid scintillation. Dose response curves were generated by fitting fractional inhibition (I) to the expression I = Imax × [inhibitor]/([inhibitor] + IC50).
(A) SLC1A4 dose response curves for substrate activated anion currents using two-electrode voltage clamp of Xenopus lavies oocytes (−30 mV). […] (B) SLC1A5 dose response curve for substrate activated anion currents using two-electrode voltage clamp (−30 mV). […] Extracellular solutions contained 50 mM NaSCN.

The target in assay [2] is T2, SLC1A4 (Homo sapiens, UniProt P43007).
T2 construct: expressed in transfected cells; host or cells: Xenopus laevis oocytes (cRNA injection)
T2 sequence (P43007 1-532): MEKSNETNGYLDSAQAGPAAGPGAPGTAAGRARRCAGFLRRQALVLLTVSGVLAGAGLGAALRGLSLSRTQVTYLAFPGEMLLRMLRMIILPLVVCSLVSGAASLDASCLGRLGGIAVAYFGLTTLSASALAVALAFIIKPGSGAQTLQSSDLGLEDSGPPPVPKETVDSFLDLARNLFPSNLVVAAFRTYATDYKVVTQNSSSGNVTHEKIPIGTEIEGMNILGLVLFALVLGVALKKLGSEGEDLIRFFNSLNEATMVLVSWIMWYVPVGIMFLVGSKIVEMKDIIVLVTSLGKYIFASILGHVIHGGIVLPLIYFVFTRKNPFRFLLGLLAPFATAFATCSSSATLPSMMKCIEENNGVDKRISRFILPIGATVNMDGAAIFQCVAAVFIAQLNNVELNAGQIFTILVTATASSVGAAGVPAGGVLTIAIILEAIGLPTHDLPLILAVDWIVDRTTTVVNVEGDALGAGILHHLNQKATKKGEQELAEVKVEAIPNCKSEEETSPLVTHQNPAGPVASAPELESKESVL
In words: TEVC block of anion leak conductance in oocytes. To be noted: for block of anion leak conductance / inhibition: SLC1A4; for Ki: from dose–response of blocked anion conductance, compounds tested only once without standard error, read-out: SLC1A4 Ki. From the text: (§1) The currents induced by substrates and blocked by hydroxyproline analogs shared a reversal potential shown in the current/voltage relationship consistent with the conductance originating from the same ion pore (Figure 3, inset). […] The observed dose–response relationships are independent of competing substrates, and thus provide a direct measure of the equilibrium inhibition constant (Ki). Each synthetic hydroxyproline analog was functionally assessed for its capacity to inhibit SLC1A4 and SLC1A5 leak currents with affinities reported in Table 1 as determined or approximated Ki.
(§2) Two-electrode voltage clamp (TEVC) transporter currents were recorded with a GeneClamp 500 amplifier and Digidata 1320A analog–digital interface (Molecular Devices, San Jose, CA, USA). Electrodes (0.2–1.0 MΩ) were filled with 3M KCl and the recording chamber was grounded with an agar bridge. Data were acquired with Axograph (v1.7.6) and LabChart (v7) and analyzed with Kaleidagraph software (v4.1) (Synergy, Reading, PA, USA). Uncoupled anion currents associated with the transport of substrate and block of SLC1A4 or SLC1A5 mediated leak conductance were recorded in the presence of Ringer with 50% substitution of NaCl by NaSCN to amplify the non-transported anion conductance.
(§3) Figure 3 AHPCs block a leak current in SLC1A4 and SLC1A5. […] Inset (A): The current and voltage relationship for SLC1A4 currents activated by Ala or blocked by 14b are determined by subtracting voltage jumps in buffer.

The target in assay [3] is T3, mSLC1A5 (Mus musculus, UniProt P51912).
T3 construct: expressed in transfected cells; host or cells: Xenopus laevis oocytes (cRNA injection)
T3 sequence (P51912 1-553): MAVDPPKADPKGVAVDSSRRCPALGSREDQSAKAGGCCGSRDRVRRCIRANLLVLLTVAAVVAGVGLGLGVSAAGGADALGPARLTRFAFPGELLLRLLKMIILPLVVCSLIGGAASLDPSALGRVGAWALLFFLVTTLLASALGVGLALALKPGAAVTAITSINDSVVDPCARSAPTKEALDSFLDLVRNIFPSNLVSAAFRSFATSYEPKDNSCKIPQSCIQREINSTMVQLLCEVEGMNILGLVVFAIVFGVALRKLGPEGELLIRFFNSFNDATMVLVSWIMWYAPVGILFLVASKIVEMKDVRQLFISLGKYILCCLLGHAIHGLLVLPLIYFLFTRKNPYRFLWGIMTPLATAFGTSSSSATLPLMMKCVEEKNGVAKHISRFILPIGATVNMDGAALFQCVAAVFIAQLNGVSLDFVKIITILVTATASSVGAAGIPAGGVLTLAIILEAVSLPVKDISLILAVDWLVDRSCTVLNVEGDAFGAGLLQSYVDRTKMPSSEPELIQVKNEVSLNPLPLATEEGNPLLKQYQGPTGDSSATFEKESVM
In words: TEVC block of anion leak conductance in oocytes. To be noted: for block of anion leak conductance / inhibition: SLC1A5; for Ki: mSLC1A5, from dose–response of blocked anion conductance, compounds tested only once without standard error, read-out: SLC1A5 Ki.
Description: as §1, §2, §3

The term IC50 denotes the concentration that gives 50% inhibition. With `O=C(O)[C@H]1NCC[C@@H]1O` [3-HP, trans-3-hydroxy-L-proline], in assay [1], the IC50 is 39 µM.

What is called Ki is the dissociation constant of the complex between target and ligand, obtained from inhibition or displacement. Take `CC1CNC(C(=O)O)C1O` [10a, trans-3-hydroxy-cis-4-methyl-L-proline]: in assay [2], the “block of anion leak conductance / inhibition” value was “no inhibition of transport” and the Ki is 1050 ± 110 µM. In addition, in assay [3], the “block of anion leak conductance / inhibition” value is listed as “no inhibition of transport” and the Ki is 1150 ± 283 µM.

As for `CC1C(O)CNC1C(=O)O` (stereo not shown) [10b], the Ki in assay [2] is 564 ± 149 µM; in assay [3], 922 ± 316 µM.

As to `O=C(O)C1NCC(c2ccccc2)C1O` (stereo not shown) [10c], the Ki in assay [2] and in assay [3] was around 600 µM throughout.

As to `O=C(O)C1NCC(O)C1c1ccccc1` [10d, cis-3-phenyl-4-trans-hydroxy-L-proline], the Ki in assay [2] came to 332 ± 74 µM; in assay [3] it was 1130 ± 318 µM.

Turning to `O=C(O)C1NCC(Oc2ccccc2)C1O` (stereo not shown) [12a], the results for the Ki in assay [2] and in assay [3] were 150 ± 43 µM and 141 ± 20 µM, respectively.

Turning to `O=C(O)C1NCC(O)C1Oc1ccccc1` (stereo not shown) [12b], the Ki in assay [2] came out at 594 ± 191 µM; in assay [3], 502 ± 110 µM.

On to `O=C(O)C1NCC(Oc2ccccc2)C1O` [12c, (2S,3R,4S)-3-hydroxy-4-phenoxypyrrolidin-2-carboxylate], for which the Ki in assay [2] and in assay [3] was around 150 µM each time.

`CC(C)O[C@@H]1CN[C@H](C(=O)O)[C@H]1O` [14b, trans-3-hydroxy-cis-4-isopropoxy-L-proline]: the “block of anion leak conductance / inhibition” value in assay [2] and in assay [3] was “block the anion conductance” in each case.
